Results from US9951088B2, “D2 receptor modulators and methods of use thereof in the treatment of diseases and disorders” (SUNOVION PHARMACEUTICALS INC., priority 2012, dated 2018).

What was measured:
[1] = target: T1, long isoform of human D2 receptor (Homo sapiens, UniProt P14416); assay: cAMP HTRF Agonist Assay (DRD2L PathHunter CHO-K1 cells, forskolin-stimulated); settings: for Emax: CHO-K1, read-out: cAMP (agonist mode) Emax
Method: Cell Lines: Activities of the compounds were assessed using a Chinese Hamster Ovary (CHO—K1) cell line that recombinantly expressed the long isoform of human D2 receptor (DRD2L PathHunter cells). The D2 receptor DNA sequence was modified to contain a “ProLink” at its C-terminus which allowed complementation with an “enzyme acceptor” (EA)-tagged β-arrestin protein. The recruitment of the O-arrestin by the D2 receptor led to complementation of the ProLink and EA and formation of active β-galactosidase which generated a D2-specific signal that was measured. The cAMP assay was measured in the same D2-expressing cell line. The D2 receptor inhibited cAMP formation so that the basal levels of cAMP were increased by the addition of an adenylate cyclase stimulator, forskolin.
cAMP HTRF Agonist Assay: Two days prior to testing, a vial of high density stock of DRD2L PathHunter cells was thawed, and cells were diluted into 10 mL of growth media (Ham's F12/10% HI FBS/1% PSG) and used to seed a T225 flask containing 50 mL of growth media. Cells were cultured for 2 days.
On the day of the assay, cells were dissociated in 5 mL cell dissociation buffer (enzyme free—Invitrogen) for 10-15 minutes at 37° C. Dissociated cells were diluted with 10 mL of growth media and counted. Cell counts were routinely ˜2×10^7 per T225. Cells were then pelleted at 1500 rpm for 5 min. Supernatant was aspirated, and cells were re-suspended in HBSS/20 mM Hepes, pH 7.4 to a cell density of 1×10^6/mL.
cAMP levels were determined using the Cisbio HTRF method. HRTF reagents (cAMP-HTRF acceptor fluorophore (d2) conjugate and cryptate-labeled anti-cAMP antibody) were prepared according to maunfacturers instructions. 5 μL of each were added to each well of an assay plate and incubated for 1 h at RT. The plate was then read on an Envision reader using the HTRF protocol, and data were exported for analysis.
The agonist Emax results were expressed as a percent of the dopamine control response ((measured specific response/control specific agonist response)×100) obtained in the presence of test article. The EC50 values (concentration producing a half-maximal specific response) were determined by non-linear regression analysis of the concentration-response curves.

[2] = target: T1, long isoform of human D2 receptor; assay: Arrestin Agonist Assay (DRD2L PathHunter CHO-K1 cells, β-arrestin recruitment); settings: for Emax: CHO-K1, read-out: β-arrestin (agonist mode) Emax
[3] = target: T1, long isoform of human D2 receptor; assay: Arrestin Antagonist Assay (DRD2L PathHunter CHO-K1 cells, vs EC80 dopamine); settings: for Emax: CHO-K1, read-out: β-arrestin (antagonist mode) Imax

T1 sequence (P14416 whole entry, canonical isoform): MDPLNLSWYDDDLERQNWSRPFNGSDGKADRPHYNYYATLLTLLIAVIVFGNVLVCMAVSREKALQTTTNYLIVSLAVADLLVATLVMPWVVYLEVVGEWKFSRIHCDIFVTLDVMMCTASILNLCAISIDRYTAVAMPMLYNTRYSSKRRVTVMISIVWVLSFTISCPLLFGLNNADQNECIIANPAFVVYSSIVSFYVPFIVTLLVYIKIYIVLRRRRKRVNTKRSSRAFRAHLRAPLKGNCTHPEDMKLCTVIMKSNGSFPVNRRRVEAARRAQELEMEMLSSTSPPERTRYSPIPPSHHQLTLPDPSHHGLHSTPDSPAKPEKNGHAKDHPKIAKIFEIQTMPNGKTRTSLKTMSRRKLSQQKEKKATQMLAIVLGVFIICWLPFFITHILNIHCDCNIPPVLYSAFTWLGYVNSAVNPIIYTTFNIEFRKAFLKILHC

SMILES	IC50 [1]	Emax [1]	EC50 [2]	Emax [2]	IC50 [3]	Emax [3]
O=c1ccc2ccc(OCCCCN3CCc4cc(C(F)(F)F)ccc4C3)nc2[nH]1 [Compound 58, 7-(4-(6-(trifluoromethyl)-3,4-dihydroisoquinolin-2(1H)-yl)butoxy)-1,8-naphthyridin-2(1H)-one]	< 10 nM	25 to 50%	< 10 nM	10 to 25%	10 to 100 nM	> 75%
O=c1ccc2ccc(OCCCCN3CCc4cc(Cl)ccc4C3)nc2[nH]1 [Compound 59, 7-(4-(6-chloro-3,4-dihydroisoquinolin-2(1H)-yl)butoxy)-1,8-naphthyridin-2(1H)-one]	< 10 nM	10 to 25%	> 10000 nM	< 10%	< 10 nM	> 75%
O=c1ccc2ccc(OCCCCN3CCc4c(Cl)cccc4C3)nc2[nH]1 [Compound 60, 7-(4-(5-chloro-3,4-dihydroisoquinolin-2(1H)-yl)butoxy)-1,8-naphthyridin-2(1H)-one]	< 10 nM	> 75%	< 10 nM	> 75%	> 10000 nM	< 10%
O=c1ccc2ccc(OCCCCN3CCc4c(cccc4C(F)(F)F)C3)nc2[nH]1 [Compound 61, 7-(4-(5-(trifluoromethyl)-3,4-dihydroisoquinolin-2(1H)-yl)butoxy)-1,8-naphthyridin-2(1H)-one]	< 10 nM	> 75%	10 to 100 nM	> 75%	> 10000 nM	< 10%
N#Cc1cccc2c1CCN(CCCCOc1ccc3ccc(=O)[nH]c3n1)C2 [Compound 62, 2-(4-((7-oxo-7,8-dihydro-1,8-naphthyridin-2-yl)oxy)butyl)-1,2,3,4-tetrahydroisoquinoline-5-carbonitrile]	< 10 nM	> 75%	< 10 nM	50 to 75%	> 10000 nM	< 10%
O=c1ccc2ccc(OCCCCN3CCc4cccc(C(F)(F)F)c4C3)nc2[nH]1 [Compound 63, 7-(4-(8-(trifluoromethyl)-3,4-dihydroisoquinolin-2(1H)-yl)butoxy)-1,8-naphthyridin-2(1H)-one]	> 10000 nM	< 10%	> 10000 nM	< 10%	10 to 100 nM	> 75%
N#Cc1cccc2c1CN(CCCCOc1ccc3ccc(=O)[nH]c3n1)CC2 [Compound 64, 2-(4-((7-oxo-7,8-dihydro-1,8-naphthyridin-2-yl)oxy)butyl)-1,2,3,4-tetrahydroisoquinoline-8-carbonitrile]	< 10 nM	25 to 50%	< 10 nM	10 to 25%	10 to 100 nM	> 75%
Cc1ccc2c(c1)CN(CCCCOc1ccc3ccc(=O)[nH]c3n1)CC2 [Compound 65, 7-(4-(7-methyl-3,4-dihydroisoquinolin-2(1H)-yl)butoxy)-1,8-naphthyridin-2(1H)-one]	< 10 nM	10 to 25%	> 10000 nM	< 10%	10 to 100 nM	> 75%
O=c1ccc2ccc(OCCCCN3CCc4nn(-c5ccccc5)cc4C3)nc2[nH]1 [Compound 66, 7-(4-(2-phenyl-6,7-dihydro-2H-pyrazolo[4,3-c]pyridin-5(4H)-yl)butoxy)-1,8-naphthyridin-2(1H)-one]	10 to 100 nM	10 to 25%	> 10000 nM	< 10%	10 to 100 nM	> 75%
O=c1ccc2ccc(OCCCCN3CCc4nn(-c5ccccn5)cc4C3)nc2[nH]1 [Compound 67, 7-(4-(2-(pyridin-2-yl)-6,7-dihydro-2H-pyrazolo[4,3-c]pyridin-5(4H)-yl)butoxy)-1,8-naphthyridin-2(1H)-one]	10 to 100 nM	10 to 25%	> 10000 nM	< 10%	100 to 1000 nM	> 75%
O=C1CCc2ccc(OCCCCN3CCc4ccccc4C3)nc2N1 [Compound 68, 7-(4-(3,4-dihydroisoquinolin-2(1H)-yl)butoxy)-3,4-dihydro-1,8-naphthyridin-2(1H)-one]	< 10 nM	25 to 50%	> 10000 nM	< 10%	10 to 100 nM	> 75%
O=C1CCc2ccc(OCCCCN3CCc4sccc4C3)nc2N1 [Compound 69, 7-(4-(6,7-dihydrothieno[3,2-c]pyridin-5(4H)-yl)butoxy)-3,4-dihydro-1,8-naphthyridin-2(1H)-one]	> 10000 nM	< 10%	> 10000 nM	< 10%	10 to 100 nM	> 75%
O=C1CCc2ccc(OCCCCN3CCc4ccsc4C3)nc2N1 [Compound 70, 7-(4-(4,5-dihydrothieno[2,3-c]pyridin-6(7H)-yl)butoxy)-3,4-dihydro-1,8-naphthyridin-2(1H)-one]	> 10000 nM	< 10%	> 10000 nM	< 10%	100 to 1000 nM	> 75%
COc1ccc2c(c1)CCN(CCCCOc1ccc3c(n1)NC(=O)CC3)C2 [Compound 71, 7-(4-(6-methoxy-3,4-dihydroisoquinolin-2(1H)-yl)butoxy)-3,4-dihydro-1,8-naphthyridin-2(1H)-one]	> 10000 nM	< 10%	> 10000 nM	< 10%	10 to 100 nM	> 75%
O=C1CCc2ccc(OCCCCN3CCc4cc(F)ccc4C3)nc2N1 [Compound 72, 7-(4-(6-fluoro-3,4-dihydroisoquinolin-2(1H)-yl)butoxy)-3,4-dihydro-1,8-naphthyridin-2(1H)-one]	> 10000 nM	< 10%	> 10000 nM	< 10%	10 to 100 nM	> 75%
N#Cc1ccc2c(c1)CCN(CCCCOc1ccc3c(n1)NC(=O)CC3)C2 [Compound 73, 2-(4-((7-oxo-5,6,7,8-tetrahydro-1,8-naphthyridin-2-yl)oxy)butyl)-1,2,3,4-tetrahydroisoquinoline-6-carbonitrile]	> 10000 nM	< 10%	> 10000 nM	< 10%	100 to 1000 nM	> 75%
O=C1CCc2ccc(OCCCCN3CCc4cc(C(F)(F)F)ccc4C3)nc2N1 [Compound 74, 7-(4-(6-(trifluoromethyl)-3,4-dihydroisoquinolin-2(1H)-yl)butoxy)-3,4-dihydro-1,8-naphthyridin-2(1H)-one]	10 to 100 nM	10 to 25%	> 10000 nM	< 10%	100 to 1000 nM	> 75%
O=C1CCc2ccc(OCCCCN3CCc4cc(Cl)ccc4C3)nc2N1 [Compound 75, 7-(4-(6-chloro-3,4-dihydroisoquinolin-2(1H)-yl)butoxy)-3,4-dihydro-1,8-naphthyridin-2(1H)-one]	< 10 nM	10 to 25%	> 10000 nM	< 10%	10 to 100 nM	> 75%
O=C1CCc2ccc(OCCCCN3CCc4c(Cl)cccc4C3)nc2N1 [Compound 76, 7-(4-(5-chloro-3,4-dihydroisoquinolin-2(1H)-yl)butoxy)-3,4-dihydro-1,8-naphthyridin-2(1H)-one]	< 10 nM	> 75%	< 10 nM	> 75%	> 10000 nM	< 10%
O=C1CCc2ccc(OCCCCN3CCc4c(cccc4C(F)(F)F)C3)nc2N1 [Compound 77, 7-(4-(5-(trifluoromethyl)-3,4-dihydroisoquinolin-2(1H)-yl)butoxy)-3,4-dihydro-1,8-naphthyridin-2(1H)-one]	10 to 100 nM	50 to 75%	100 to 1000 nM	50 to 75%	> 10000 nM	< 10%
N#Cc1cccc2c1CCN(CCCCOc1ccc3c(n1)NC(=O)CC3)C2 [Compound 78, 2-(4-((7-oxo-5,6,7,8-tetrahydro-1,8-naphthyridin-2-yl)oxy)butyl)-1,2,3,4-tetrahydroisoquinoline-5-carbonitrile]	10 to 100 nM	50 to 75%	10 to 100 nM	50 to 75%	> 10000 nM	< 10%
O=C1CCc2ccc(OCCCCN3CCc4cccc(C(F)(F)F)c4C3)nc2N1 [Compound 79, 7-(4-(8-(trifluoromethyl)-3,4-dihydroisoquinolin-2(1H)-yl)butoxy)-3,4-dihydro-1,8-naphthyridin-2(1H)-one]	> 10000 nM	< 10%	> 10000 nM	< 10%	100 to 1000 nM	> 75%
N#Cc1cccc2c1CN(CCCCOc1ccc3c(n1)NC(=O)CC3)CC2 [Compound 80, 2-(4-((7-oxo-5,6,7,8-tetrahydro-1,8-naphthyridin-2-yl)oxy)butyl)-1,2,3,4-tetrahydroisoquinoline-8-carbonitrile]	> 10000 nM	< 10%	> 10000 nM	< 10%	100 to 1000 nM	> 75%
Cc1ccc2c(c1)CN(CCCCOc1ccc3c(n1)NC(=O)CC3)CC2 [Compound 81, 7-(4-(7-methyl-3,4-dihydroisoquinolin-2(1H)-yl)butoxy)-3,4-dihydro-1,8-naphthyridin-2(1H)-one]	> 10000 nM	< 10%	> 10000 nM	< 10%	10 to 100 nM	> 75%
O=C1CCc2ccc(OCCCCN3CCc4nn(-c5ccccc5)cc4C3)nc2N1 [Compound 82, 7-(4-(2-phenyl-6,7-dihydro-2H-pyrazolo[4,3-c]pyridin-5(4H)-yl)butoxy)-3,4-dihydro-1,8-naphthyridin-2(1H)-one]	> 10000 nM	< 10%	> 10000 nM	< 10%	100 to 1000 nM	> 75%
